The source of these data is ChEMBL document CHEMBL3886390, “Triazolyl PDE10 inhibitors” (2015).

For the assay, the target named is cAMP and cAMP-inhibited cGMP 3',5'-cyclic phosphodiesterase 10A (Homo sapiens, UniProt Q9Y233). The experiment in a line: Fluorescence Polarization Assay: In a typical experiment the PDE10 inhibitory activity of the compounds of the present invention was determined in accordance with the following experimental method. PDE10A2 was amplified from human fetal brain cDNA (Clontech, Mountain View, Calif.) using a forward primer corresponding to nucleotides 56-77 of human PDE10A2 (Accession No. AF127480, Genbank Identifier 4894716), containing a Kozak consensus sequence, and a reverse primer corresponding to nucleotides 2406-2413 of human PDE10A2 (Accession No. AF127480, Genbank Identifier 4894716). Amplification with Easy-A polymerase (Stratagene, La Jolla, Calif.) was 95° C. for 2 minutes followed by thirty three cycles of 95° C. for 40 seconds, 55° C. for 30 seconds, and 72° C. for 2 minutes 48 seconds. Final extension was 72° C. for 7 minutes. The PCR product was TA cloned into pcDNA3.2-TOPO (Invitrogen, Carlsbad, Calif.) according to standard protocol. AD293 cells with 70-80% confluency were transiently transfected with human PDE10A2. (Fluorescence polarisation rises when a labelled molecule tumbles more slowly, as on binding a larger partner.)

The structures appear in SMILES notation.

Sequence of cAMP and cAMP-inhibited cGMP 3',5'-cyclic phosphodiesterase 10A (Q9Y233 whole entry): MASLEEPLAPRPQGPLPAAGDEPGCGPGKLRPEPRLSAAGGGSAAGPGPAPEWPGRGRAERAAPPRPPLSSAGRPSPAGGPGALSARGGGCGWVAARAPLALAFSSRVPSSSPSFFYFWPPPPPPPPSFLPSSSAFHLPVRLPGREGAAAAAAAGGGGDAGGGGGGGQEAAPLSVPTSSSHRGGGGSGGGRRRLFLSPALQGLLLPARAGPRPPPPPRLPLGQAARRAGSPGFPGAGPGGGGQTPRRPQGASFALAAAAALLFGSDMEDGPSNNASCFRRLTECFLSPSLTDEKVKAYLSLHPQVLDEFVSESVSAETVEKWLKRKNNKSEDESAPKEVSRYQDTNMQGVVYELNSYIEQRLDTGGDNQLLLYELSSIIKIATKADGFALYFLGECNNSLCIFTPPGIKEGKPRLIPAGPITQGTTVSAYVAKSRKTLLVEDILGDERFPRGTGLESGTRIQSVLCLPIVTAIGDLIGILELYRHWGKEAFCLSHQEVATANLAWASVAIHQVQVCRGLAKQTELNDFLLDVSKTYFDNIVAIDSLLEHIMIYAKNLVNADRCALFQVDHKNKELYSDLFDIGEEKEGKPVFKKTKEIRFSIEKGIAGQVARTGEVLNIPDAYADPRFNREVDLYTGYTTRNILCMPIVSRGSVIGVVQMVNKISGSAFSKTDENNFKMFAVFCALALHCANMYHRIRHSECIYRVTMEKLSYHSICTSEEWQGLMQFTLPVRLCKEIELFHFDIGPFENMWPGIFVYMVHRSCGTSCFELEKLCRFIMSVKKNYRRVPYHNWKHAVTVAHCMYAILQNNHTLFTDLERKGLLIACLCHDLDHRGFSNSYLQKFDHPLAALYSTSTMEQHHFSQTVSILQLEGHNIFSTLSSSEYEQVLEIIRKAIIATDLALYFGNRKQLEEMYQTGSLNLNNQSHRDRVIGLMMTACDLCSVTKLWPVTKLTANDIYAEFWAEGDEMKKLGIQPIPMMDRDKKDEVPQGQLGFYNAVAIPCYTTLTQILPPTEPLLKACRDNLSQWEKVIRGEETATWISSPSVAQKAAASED

`Cc1nc(C2CC2c2nc3ccc(F)cc3[nH]2)cc(-n2nc(C)nc2C)n1` (configuration not stated) registered a Ki of 14.2 nM.

With `COc1ccc(COc2cc(-n3nc(C)nc3Cc3ccc(OC)c(OC)c3)nc(C)n2)nc1`, the affinity, expressed as Ki, was 3.3 nM.

The Ki is the equilibrium dissociation constant of an inhibitor or competing ligand from its target. A low value points to tighter binding.
